Reference: patent US10770169B2, “Method of providing a treatment to a subject based on a dynamic pathway map” (THE REGENTS OF THE UNIVERSITY OF CALIFORNIA, priority 2010, dated 2020)
Read-outs that look alike come from different tables or passages of the source.

Columns and labels:
[1] = tested on: panel of 55 breast cancer cell lines; assay: Cell growth inhibition assay (Cell Titer Glo, 72 h, 9 doses; GI50, TGI, LC50); assay type: cell-based, human; details: Homo sapiens, read-out: GI50 (converted)
[2] = tested on: luminal, basal, claudin-low and ERBB2AMP breast cancer cell lines; assay: Associations of clinically relevant subtypes and response (non-parametric ANOVA or t-test on GI50 ranks); assay type: cell-based, human
How it was run: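 Significance was set at FDR p<0.20 after combining p-values across three test sets. Subtype–response associations came from rank-based non-parametric ANOVA or t-tests on GI50. For three-class comparisons, post-hoc tests of each group against the rest identified the most sensitive group, with FDR correction.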

CC(=O)O[C@@]12CO[C@@H]1C[C@H](O)[C@@]1(C)C(=O)[C@H](O)C3=C(C)[C@@H](OC(=O)[C@H](O)[C@@H](NC(=O)OC(C)(C)C)c4ccccc4)C[C@@](O)([C@@H](OC(=O)c4ccccc4)[C@H]21)C3(C)C [Docetaxel]
GI50 ([1]; 600MPE cell line, censored GI50 values): 97.7 nM | GI50 ([1]; AU565, AU565 cell line, censored GI50 values): 5.25 nM | GI50 ([1]; AU565, cell line AU565): 5.25 nM | GI50 ([1]; BT-474, BT474 cell line, censored GI50 values): 6.31 nM | GI50 ([1]; BT-474, cell line BT474): 6.31 nM | GI50 ([1]; BT-483, BT483 cell line, censored GI50 values): 23.4 nM | GI50 ([1]; BT-483, cell line BT483): 23.4 nM | GI50 ([1]; CAMA-1, CAMA1 cell line, censored GI50 values): 5.62 nM | GI50 ([1]; CAMA-1, cell line CAMA1): 5.62 nM | GI50 ([1]; HCC38, HCC38 cell line, censored GI50 values): 2.04 nM | GI50 ([1]; HCC38, cell line HCC38): 2.04 nM | GI50 ([1]; HCC70, HCC70 cell line, censored GI50 values): 5.13 nM | GI50 ([1]; HCC70, cell line HCC70): 5.13 nM | GI50 ([1]; HCC202, HCC202 cell line, censored GI50 values): 3.72 nM | GI50 ([1]; HCC202, cell line HCC202): 3.72 nM | GI50 ([1]; HCC1143, HCC1143 cell line, censored GI50 values): 11 nM | GI50 ([1]; HCC1143, cell line HCC1143): 11 nM | GI50 ([1]; HCC1187, HCC1187 cell line, censored GI50 values): 2.51 nM | GI50 ([1]; HCC1187, cell line HCC1187): 2.51 nM | GI50 ([1]; HCC1395, HCC1395 cell line, censored GI50 values): 5.62 nM | GI50 ([1]; HCC1395, cell line HCC1395): 5.62 nM | GI50 ([1]; HCC1419, HCC1419 cell line, censored GI50 values): 16.6 nM | GI50 ([1]; HCC1419, cell line HCC1419): 16.6 nM | GI50 ([1]; HCC1428, HCC1428 cell line, censored GI50 values): 5010 nM | GI50 ([1]; HCC1428, cell line HCC1428): 5010 nM | GI50 ([1]; HCC1500, HCC1500 cell line, censored GI50 values): 2.75 nM | GI50 ([1]; HCC1500, cell line HCC1500): 2.75 nM | GI50 ([1]; HCC1806, HCC1806 cell line, censored GI50 values): 2.57 nM | GI50 ([1]; HCC1806, cell line HCC1806): 2.57 nM | GI50 ([1]; HCC1954, HCC1954 cell line, censored GI50 values): 1.66 nM | GI50 ([1]; HCC1954, cell line HCC1954): 1.66 nM | GI50 ([1]; HCC2185 cell line, censored GI50 values): 3.02 nM | GI50 ([1]; HCC3153 cell line, censored GI50 values): 9.77 nM | GI50 ([1]; LY2 cell line, censored GI50 values): 4.27 nM | GI50 ([1]; MCF7, MCF7 cell line, censored GI50 values): 12.3 nM | GI50 ([1]; MCF7, cell line MCF7): 12.3 nM | GI50 ([1]; MDA-MB-134-VI, MDAMB134VI cell line, censored GI50 values): 23.4 nM | GI50 ([1]; MDA-MB-175-VII, MDAMB175VII cell line, censored GI50 values): 15.8 nM | GI50 ([1]; MDA-MB-231, MDAMB231 cell line, censored GI50 values): 2.82 nM | GI50 ([1]; MDA-MB-231, cell line MDAMB231): 2.82 nM | GI50 ([1]; MDA-MB-361, MDAMB361 cell line, censored GI50 values): 5.62 nM | GI50 ([1]; MDA-MB-361, cell line MDAMB361): 5.62 nM | GI50 ([1]; MDA-MB-415, MDAMB415 cell line, censored GI50 values): 2.88 nM | GI50 ([1]; MDA-MB-415, cell line MDAMB415): 2.88 nM | GI50 ([1]; MDA-MB-436, MDAMB436 cell line, censored GI50 values): 17 nM | GI50 ([1]; MDA-MB-436, cell line MDAMB436): 17 nM | GI50 ([1]; MDA-MB-453, MDAMB453 cell line, censored GI50 values): 4.37 nM | GI50 ([1]; MDA-MB-453, cell line MDAMB453): 4.37 nM | GI50 ([1]; MDA-MB-468, MDAMB468 cell line, censored GI50 values): 2.88 nM | GI50 ([1]; MDA-MB-468, cell line MDAMB468): 2.88 nM | GI50 ([1]; SK-BR-3, SKBR3 cell line, censored GI50 values): 7.59 nM | GI50 ([1]; SK-BR-3, cell line SKBR3): 7.59 nM | GI50 ([1]; SUM52PE, SUM52PE cell line, censored GI50 values): 1.82 nM | GI50 ([1]; SUM52PE, cell line SUM52PE): 1.82 nM | GI50 ([1]; SUM149PT, SUM149PT cell line, censored GI50 values): 1.74 nM | GI50 ([1]; SUM149PT, cell line SUM149PT): 1.74 nM | GI50 ([1]; SUM185PE, SUM185PE cell line, censored GI50 values): 5010 nM | GI50 ([1]; SUM185PE, cell line SUM185PE): 5010 nM | GI50 ([1]; SUM1315MO2, SUM1315MO2 cell line, censored GI50 values): 2.95 nM | GI50 ([1]; SUM-159-PT, SUM159PT cell line, censored GI50 values): 4.57 nM | GI50 ([1]; SUM-159-PT, cell line SUM159PT): 4.57 nM | GI50 ([1]; UACC-812, UACC812 cell line, censored GI50 values): 3.24 nM | GI50 ([1]; UACC-812, cell line UACC812): 3.24 nM | GI50 ([1]; UACC-893, UACC893 cell line, censored GI50 values): 11.5 nM | GI50 ([1]; UACC-893, cell line UACC893): 11.5 nM | GI50 ([1]; ZR-75-1, ZR751 cell line, censored GI50 values): 28.2 nM | GI50 ([1]; ZR-75-1, cell line ZR751): 28.2 nM | GI50 ([1]; ZR-75-30, ZR7530 cell line, censored GI50 values): 3.98 nM | GI50 ([1]; ZR-75-30, cell line ZR7530): 3.98 nM | GI50 ([1]; ZR-75B, ZR75B cell line, censored GI50 values): 15.5 nM | GI50 ([1]; ZR-75B, cell line ZR75B): 15.5 nM | GI50 ([1]; cell line 600MPE): 97.7 nM | GI50 ([1]; cell line HCC2185): 3.02 nM | GI50 ([1]; cell line HCC3153): 9.77 nM | GI50 ([1]; cell line LY2): 4.27 nM | GI50 ([1]; cell line MDAMB134V): 23.4 nM | GI50 ([1]; cell line MDAMB175V): 15.8 nM | GI50 ([1]; cell line SUM1315MO): 2.95 nM | subtype-specific response (sensitivity by transcriptional subtype) ([2]; GI50 across subtypes): preferential activity in basal and/or claudin-low cell lines | Subtype specificity ([2]; Table 6, most sensitive subtype, FDR p<0.20): Basal
